Laboratory results: US20240366589A1, “NHE3-BINDING COMPOUNDS AND METHODS FOR INHIBITING PHOSPHATE TRANSPORT” (Ardelyx, Inc., priority 2013, published 2024)

Tests used:
human NaP2b (SLC34A2) = biological target: T1, human NaP2b (SLC34A2) (Homo sapiens, UniProt O95436); assay: Cell-based assay of NaP2b activity (33P uptake, transfected HEK293 cells), human NaP2b isoform a; conditions: Table E5; HEK293, 33P uptake; dihydrochloride salt
T1 construct: host or cells: HEK293 cells (ATCC), Lipofectamine 2000, transient
T1 sequence (O95436 1-690): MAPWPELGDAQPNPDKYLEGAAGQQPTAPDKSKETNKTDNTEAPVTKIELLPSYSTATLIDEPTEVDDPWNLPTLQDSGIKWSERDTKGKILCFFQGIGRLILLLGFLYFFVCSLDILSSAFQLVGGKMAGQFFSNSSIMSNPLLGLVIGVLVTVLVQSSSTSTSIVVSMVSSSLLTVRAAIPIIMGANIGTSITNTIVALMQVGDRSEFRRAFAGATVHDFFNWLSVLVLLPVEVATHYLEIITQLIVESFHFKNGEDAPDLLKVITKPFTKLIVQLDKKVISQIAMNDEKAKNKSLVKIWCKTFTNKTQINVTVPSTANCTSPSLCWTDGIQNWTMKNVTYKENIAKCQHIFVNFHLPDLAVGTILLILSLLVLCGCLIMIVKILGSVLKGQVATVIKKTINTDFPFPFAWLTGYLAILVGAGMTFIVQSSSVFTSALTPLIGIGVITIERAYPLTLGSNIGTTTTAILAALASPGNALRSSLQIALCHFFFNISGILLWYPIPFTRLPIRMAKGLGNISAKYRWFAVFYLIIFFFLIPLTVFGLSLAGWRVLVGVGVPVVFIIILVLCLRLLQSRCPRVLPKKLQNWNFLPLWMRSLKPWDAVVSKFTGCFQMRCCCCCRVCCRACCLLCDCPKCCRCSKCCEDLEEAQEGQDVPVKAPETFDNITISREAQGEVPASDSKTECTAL
Protocol: Cell-based assay of NaP2b activity. The rate of phosphate (Pi) uptake into cells was measured using a modification of a literature method (see Mohrmann et al. Am. J Phys. 250(3 pt 1):G323-30, 1986). Briefly, HEK293 cells were transiently transfected with an expression clone encoding either rat or human NaP2b. The next day, transfected cells were treated with a pharmacological agent to minimize endogenous PiT-mediated phosphate transport activity, such that the only remaining sodium-dependent phosphate transport activity is that which was bestowed by introduction of the NaP2b gene. Cells were incubated with radioactive inorganic phosphate in the presence or absence of varying concentrations of test compound. After a short time, cells were washed, harvested, and the amount of hot phosphate taken up in the cells determined by liquid scintillation counting.
HEK293 cells were obtained from the American Type Culture collection and propagated per their instructions. […]
Cells were seeded into 96-well plates at 25,000 cells/well and cultured overnight. […] Cells were lysed by addition of 20 μL 0.1% Tween 80 followed by 100 μL scintillation fluid, and counted using a TopCount (Perkin Elmer). The pIC50 (the negative log of the IC50) values of the test compounds were calculated using GraphPad Prism.

[1] = tested on: absorption of sodium from the intestinal lumen; assay: Fecal form score (FFS) 16 h after oral dose in rats; assay type: in vivo, rat; conditions: in words
In short: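 Eight-week-old Sprague-Dawley rats (n=6) dosed by oral gavage with compound or water vehicle between 4 and 5 PM, then housed in metabolic cages with food and water ad libitum. At 16 h, fecal form scored 1 (normal pellet) to 5 (liquid streams) by two observers; group mean reported.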

Row | Structure (SMILES) | pIC50 Human Nap2B (human NaP2b (SLC34A2)) | effect on fecal form [1]
1 | CN1Cc2c(Cl)cc(Cl)cc2[C@H](c2cccc(S(=O)(=O)NCCOCCOCCNC(=O)NCCCCNC(=O)NCCOCCOCCNS(=O)(=O)c3cccc([C@@H]4CN(C)Cc5c(Cl)cc(Cl)cc54)c3)c2)C1 [Cpd 002] | <4.5 | 
2 | CN1Cc2c(Cl)cc(Cl)cc2[C@@H](c2cccc(S(=O)(=O)NCCOCCOCCNC(=O)NCCCCNC(=O)NCCOCCOCCNS(=O)(=O)c3cccc([C@H]4CN(C)Cc5c(Cl)cc(Cl)cc54)c3)c2)C1 [Cpd 004] |  | no significant effect
